Laboratory results: patent US20250134853A1, “COMPOUNDS AND METHODS FOR USING GALLOYLATED POLYPHENOLS TO TREAT DISEASES MEDIATED BY THIOL ISOMERASES” (Beth Israel Deaconess Medical Center, Inc., priority 2023, published 2025)
Entries after “also recorded” stand apart in the source; their conditions may differ. Read-outs that look alike come from different tables or passages of the source.

What was measured:
ERp57 = biological target: T1, ERp57 (Homo sapiens, UniProt P30101); test: Di-eosin-GSSG disulfide reductase assay, ERp57; type: biochemical
T1 construct: FLAG; made in house; host or cells: Escherichia coli Origami B (DE3)
T1 sequence (P30101 25-505): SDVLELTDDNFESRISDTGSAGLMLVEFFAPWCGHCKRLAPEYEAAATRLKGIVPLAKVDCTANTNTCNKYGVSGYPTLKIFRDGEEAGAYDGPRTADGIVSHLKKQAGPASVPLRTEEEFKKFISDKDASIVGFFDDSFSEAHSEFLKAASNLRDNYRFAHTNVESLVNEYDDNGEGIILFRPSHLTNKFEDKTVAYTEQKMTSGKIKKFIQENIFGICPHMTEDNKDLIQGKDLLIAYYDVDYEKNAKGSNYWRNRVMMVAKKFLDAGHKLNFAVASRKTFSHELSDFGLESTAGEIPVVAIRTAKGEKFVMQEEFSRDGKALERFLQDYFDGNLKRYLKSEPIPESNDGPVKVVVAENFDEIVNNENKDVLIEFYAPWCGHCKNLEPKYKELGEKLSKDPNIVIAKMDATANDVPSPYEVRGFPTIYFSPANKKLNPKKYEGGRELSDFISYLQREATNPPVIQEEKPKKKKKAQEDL
Excerpt: (§1) Recombinant protein purification. Recombinant ‘double-tagged’ (streptavidin-binding protein-tagged and FLAG-tagged) full-length PDI, ERp57, recombinant His-tagged full-length ERp5, ERp72, PDI domain fragments, and PDI mutant were cloned into a pET-15b vector at the NdeI and BamHI sites and transformed into Escherichia coli Origami B (DE3) cells (EMD Chemicals). The recombinant proteins were expressed and isolated by affinity chromatography with complete His-Tag purification resin (Roche Applied Science) or Pierce High-Capacity Streptavidin Agarose beads and purified on a Superdex 200 (GE Healthcare).
(§2) Di-eosin-GSSG disulfide reductase assay. […] Any fraction with a fold change >5 was kept.

ERp72 = biological target: T2, ERp72 (Homo sapiens, UniProt P13667); test: Di-eosin-GSSG disulfide reductase assay, ERp72; type: biochemical
T2 construct: recombinant His-tagged full-length ERp5, ERp72; His-tag; made in house; host or cells: Escherichia coli Origami B (DE3)
T2 sequence (P13667 21-645): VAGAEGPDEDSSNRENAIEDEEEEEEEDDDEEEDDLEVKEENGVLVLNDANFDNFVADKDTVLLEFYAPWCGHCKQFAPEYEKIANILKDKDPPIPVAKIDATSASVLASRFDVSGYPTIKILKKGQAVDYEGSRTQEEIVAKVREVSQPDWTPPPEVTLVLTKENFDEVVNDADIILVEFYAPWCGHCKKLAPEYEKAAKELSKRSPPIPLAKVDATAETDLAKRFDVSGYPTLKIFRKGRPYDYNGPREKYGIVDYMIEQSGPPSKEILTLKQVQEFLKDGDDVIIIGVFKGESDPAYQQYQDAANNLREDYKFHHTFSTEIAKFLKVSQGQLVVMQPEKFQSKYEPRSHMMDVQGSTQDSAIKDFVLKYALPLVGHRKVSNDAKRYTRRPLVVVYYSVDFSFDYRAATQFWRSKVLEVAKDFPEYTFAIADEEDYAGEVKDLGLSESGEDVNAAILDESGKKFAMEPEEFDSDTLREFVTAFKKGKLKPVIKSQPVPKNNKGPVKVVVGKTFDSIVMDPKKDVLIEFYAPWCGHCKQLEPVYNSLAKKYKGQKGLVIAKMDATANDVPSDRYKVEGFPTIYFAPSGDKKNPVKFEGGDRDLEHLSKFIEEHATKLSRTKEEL
Excerpt: as §1, §2

ERp46 = ERp46 (Homo sapiens, UniProt Q8NBS9); test: Di-eosin-GSSG disulfide reductase assay, ERp46; type: biochemical
Chain of ERp46 (Q8NBS9 33-432, species assumed): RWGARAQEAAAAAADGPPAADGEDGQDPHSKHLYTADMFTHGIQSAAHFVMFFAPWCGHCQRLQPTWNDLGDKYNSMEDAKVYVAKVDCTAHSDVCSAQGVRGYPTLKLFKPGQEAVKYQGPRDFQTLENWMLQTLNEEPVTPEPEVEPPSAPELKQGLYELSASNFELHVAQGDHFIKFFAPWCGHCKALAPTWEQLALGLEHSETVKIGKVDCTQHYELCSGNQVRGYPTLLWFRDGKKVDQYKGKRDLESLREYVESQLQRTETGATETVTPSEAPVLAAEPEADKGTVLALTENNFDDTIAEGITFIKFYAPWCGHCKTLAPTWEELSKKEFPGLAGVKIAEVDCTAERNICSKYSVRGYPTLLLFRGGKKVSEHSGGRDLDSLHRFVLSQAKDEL
Excerpt: as §2

PDI = biological target: T3, PDI (Homo sapiens, UniProt P07237); test: Insulin reductase assay; type: biochemical; details: PGHG incubated with PDI for 15 minutes
T3 construct: FLAG; made in house; host or cells: Escherichia coli Origami B (DE3)
T3 sequence (P07237 18-508): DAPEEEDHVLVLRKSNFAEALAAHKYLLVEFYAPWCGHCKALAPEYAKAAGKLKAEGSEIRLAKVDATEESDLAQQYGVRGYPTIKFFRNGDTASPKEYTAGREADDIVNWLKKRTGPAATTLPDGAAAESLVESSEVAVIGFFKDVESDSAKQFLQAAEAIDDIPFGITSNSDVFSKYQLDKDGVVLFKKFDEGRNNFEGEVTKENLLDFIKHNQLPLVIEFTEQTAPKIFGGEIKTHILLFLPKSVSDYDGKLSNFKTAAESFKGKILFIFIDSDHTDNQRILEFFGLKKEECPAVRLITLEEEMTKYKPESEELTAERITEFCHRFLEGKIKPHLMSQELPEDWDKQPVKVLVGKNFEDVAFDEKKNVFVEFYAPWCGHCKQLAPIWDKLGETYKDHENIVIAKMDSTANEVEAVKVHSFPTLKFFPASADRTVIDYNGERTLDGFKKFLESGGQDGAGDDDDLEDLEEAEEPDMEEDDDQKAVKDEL
Procedure: Insulin reductase assay. Insulin was prepared by mixing 12.5 mg/mL insulin in 50 mM Tris-HCl, pH 8. 1 M HCl was carefully added to drop the pH to 2.0 for solution clarification. Once the solution clarifies, 1 M NaOH was added to rapidly adjust the pH back to 8.0. The solution was then adjusted to 1.5 mM (10 mg/mL) with 50 mM Tris-HCl, aliquoted and stored in −20° C. until use. 2× concentrations of thiol isomerases were prepared (final concentrations as indicated in each assay) and mixed with 1.2 mM DTT (final 0.3 mM) and 0.4 mM insulin (final 0.1 mM) using a thiol isomerase activity assay buffer. Insulin precipitation from enzyme-mediated reduction was assayed in 96-well clear bottom plates at 650 nm absorption.

[1] = system: PDI domain fragments (a, a′, ab, abb′, b′xa′); test: Di-eosin-GSSG assay on isolated PDI domain fragments; type: biochemical; details: a, ab, b′xa′, abb′ fragments; PGHG at 10 μM
Procedure: Di-eosin-GSSG disulfide reductase assay. The probe di-eosin glutathione disulfide, di-eosin-GSSG, was prepared by incubating 100 μM of GSSG with 1 mM of eosin isothiocyanate in 100 mM potassium phosphate containing 2 mM EDTA (pH 7.4), at 25° C. overnight in the dark. The mixture was passed down a PD-10 column and different fractions were collected. A fold change of fluorescence (Ex: 520 nm, Em: 550 nm) was calculated using samples subjected to either vehicle or 20 mM of DTT. Any fraction with a fold change >5 was kept. Using a stock of 10 mM eosin isothiocyanate, a standard curve was generated and concentration of samples were determined accordingly. Di-eosin-GSSG cleavage of purified thiol isomerases and PDI domains was monitored in a 96-well fluorescence plate format. PDI, CGXC-PDI variants, ERp5, ERp57, ERp46 and PDI domains were assayed at 50 nM in the presence or absence of the indicated small molecules. The assay included a thiol isomerase assay buffer (39 mM KH2PO4, 61 mM K2HPO4, 2 mM EDTA, 5 M DTT, pH 7.4) and 150 nM of the di-eosin-GSSG probe. The increase in fluorescence was determined for 60 min by excitation at 520 nm and emission at 550 nm in a Synergy Biotek 4. The reduction of 150 nM di-eosin-GSSG by 5 μM DTT in the presence or absence of mentioned small molecule or proteins served as a negative control.

[2] = system: thrombus formation following laser injury of cremaster arterioles; test: Laser-injury thrombosis model; type: in vivo, mice
Procedure: Laser-injury thrombosis model. Thrombus formation in response to laser injury was measured as described previously. See Grover S P, et al. J. Thromb. Haemost. 18:3078-85, 2020; Koseoglu S, et al. Arterioscler. Thromb. Vasc. Biol. 33:481-8, 2013; and Matsuura S, et al. Arterioscler. Thromb. Vasc. Biol. 40:e262-e72, 2020. Briefly, cremaster muscle arterioles were injured using a MicroPoint Laser System (Andor, Belfast, UK). Platelet and fibrin accumulation were measured by infusion of Dylight 649-labeled anti-platelet (CD42b; 0.1 μg/g body weight; Emfret Analytics) and DyLight 488-labeled anti-fibrin (clone 59D8; 0.3 μg/g) antibodies through a jugular vein catheter. Data were acquired before and after laser injury using the brightfield, 488/520 nm, and 640/670 nm channels. Images were captured for 250 seconds at 2 frames/s using a CCD camera (ORCA Flash 4.0, Hamamatsu Photonics, Japan) on an AX-70 fluorescence microscope (Olympus, Japan). Data were analyzed using Slidebook 6.0 (Intelligent Imaging Innovations). Data from 16 to 30 thrombi were used to determine the median value of the integrated fluorescence intensity to account for variability in thrombus formation under any given experimental condition. AUC was calculated for individual thrombi and normalized to injury lengths to evaluate statistical significance. Injury lengths were determined as previously described in Grover S P, et al. J. Thromb. Haemost. 18:3078-85, 2020.
The differences in platelet accumulation and fibrin formation were not secondary to differences in the extent of laser injury since injury size between control and PGHG-treated mice was indistinguishable (FIG. 10E).

SARS-CoV-2 M^pro [3] = biological target: T4, SARS-CoV-2 M^pro (Severe acute respiratory syndrome coronavirus 2, UniProt P0DTD1); test: SARS-CoV-2 M^pro proteolytic activity; type: biochemical
SARS-CoV-2 [4] = test: Vero E6-based viral replication assay; type: cell-based
SARS-CoV-2 M^pro [5] = biological target: T4, SARS-CoV-2 M^pro; details: literature values (Table 2); read-out: SARS-CoV-2 M^pro inhibition; cited from earlier work
SARS-CoV-2 [6] = details: cited from earlier work
[7] = system: bleeding following tail clip; test: Tail clip assay of hemostasis; details: 25 μg/g PGHG, intraperitoneal injection
[8] = 25 μg/g PGHG, intraperitoneal injection
[9] = PGHG 25 mg/kg (Example 1, FIG. 1)
[10] = intravenous infusion, 25 μg/g PGHG

Question: What does the source list for `O=C(O[C@@H]1[C@@H](O)[C@H](Oc2cc(O)c3c(c2)O[C@H](c2ccccc2)CC3=O)O[C@@H]2COC(=O)c3cc(O)c(O)c(O)c3-c3c(cc(O)c(O)c3O)C(=O)O[C@@H]12)c1cc(O)c(O)c(O)c1` [PGHG, pinocembrin 7-O-(3″-galloyl-4″,6″-(S)-hexahydroxydiphenoyl)-beta-D-glucose]?
Answer: IC50 (ERp57): 3.3 µM; IC50 (ERp72): 7.8 µM; IC50 (ERp46): 3.9 µM; inhibition of PDI in insulin reductase assay (in words) (PDI): low micromolar range; inhibition of isolated PDI fragments [1]: inhibited a and a′ fragments as well as ab, b′xa′ and abb′x fragments; also recorded: inhibited activity of all fragments including the isolated the a and a′ domains; mean fibrin fluorescence [2, 8]: 33.44±7.53 % of control; mean platelet accumulation [2, 8]: 29.56±9.08 % of control; fibrin formation [2, 9]: 21±3 % of controls; platelet accumulation [2, 9]: 18±6 % of control levels; fibrin formation, fluorescence compared to controls [2, 10]: 21±3.7%; platelet accumulation, fluorescence compared to controls [2, 10]: 18±6.2%; IC50 (SARS-CoV-2 M^pro [3]): 6.5 µM; IC50 (SARS-CoV-2 [4]): 4.9 µM; IC50 (SARS-CoV-2 M^pro [5]): 6.5 µM; IC50 (SARS-CoV-2 [6]; Vero Cells, read-out: Inhibition of viral replication IC50): 5 µM; inhibition of SARS-CoV-2 / infection (in words) (SARS-CoV-2 [6]): inhibitors of SARS-CoV-2; time to cessation of bleeding [7]: did not prolong the time to cessation of bleeding; also recorded: did not prolong the time required for bleeding to subside; total blood loss [7]: nor the total amount of blood loss; also recorded: nor did it significantly affect total blood loss
